Earlier results as cited in patent US20050107425A1, “Treatment of attention defecit hyperactivity disorder” (Pfizer Inc, priority 2002, published 2005).

How the values were obtained:
[1] = clinical trials of Alzheimer's disease and attention-deficit disorders
α7 nAChR = α7 nAChR (Homo sapiens, UniProt P36544)
5HT3R = molecular target: T1, 5HT3R (Homo sapiens, UniProt P46098)
T1 sequence (P46098 24-478): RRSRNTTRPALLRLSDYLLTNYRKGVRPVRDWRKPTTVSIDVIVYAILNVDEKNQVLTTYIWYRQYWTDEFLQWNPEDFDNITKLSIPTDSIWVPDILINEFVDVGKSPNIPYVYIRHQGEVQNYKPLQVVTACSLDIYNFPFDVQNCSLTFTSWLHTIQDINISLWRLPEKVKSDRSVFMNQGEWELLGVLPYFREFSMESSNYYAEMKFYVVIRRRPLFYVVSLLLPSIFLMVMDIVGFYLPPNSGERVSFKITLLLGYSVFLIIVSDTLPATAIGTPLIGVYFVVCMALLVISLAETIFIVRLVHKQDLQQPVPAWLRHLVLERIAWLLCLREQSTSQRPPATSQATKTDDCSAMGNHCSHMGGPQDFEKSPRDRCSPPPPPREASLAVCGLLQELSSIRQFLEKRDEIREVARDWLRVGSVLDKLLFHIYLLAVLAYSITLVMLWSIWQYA

Sequence of α7 nAChR (P36544 23-502): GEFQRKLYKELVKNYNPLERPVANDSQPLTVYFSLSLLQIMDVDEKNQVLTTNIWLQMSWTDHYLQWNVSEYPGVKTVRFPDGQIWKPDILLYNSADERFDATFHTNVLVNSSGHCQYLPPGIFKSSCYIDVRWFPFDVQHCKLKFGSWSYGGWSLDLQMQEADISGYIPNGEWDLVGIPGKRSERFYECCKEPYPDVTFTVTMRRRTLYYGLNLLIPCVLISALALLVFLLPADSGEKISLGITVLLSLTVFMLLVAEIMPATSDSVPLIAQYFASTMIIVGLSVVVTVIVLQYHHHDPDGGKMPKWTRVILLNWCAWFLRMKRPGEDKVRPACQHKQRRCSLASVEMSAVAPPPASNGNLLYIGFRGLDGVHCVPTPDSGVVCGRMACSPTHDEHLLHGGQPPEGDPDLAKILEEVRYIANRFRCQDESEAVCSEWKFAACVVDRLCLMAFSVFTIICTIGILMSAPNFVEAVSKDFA

Q: For `Cc1cc([C@@H]2CCCN2C)on1` [ABT-418], which “cognition and attention in clinical trials” value [1] is on record?
A: Its value is “improves cognition and attention”.

Q: Which “activity at the α7 nAChR” value (α7 nAChR) does the source give for `Cc1nccn1CC1CCc2c(c3ccccc3n2C)C1=O` (stereo not drawn) [Ondansetron] here?
A: The value was “little activity”.

Q: For `COc1ccc(/C=C2\CCCN=C2c2cccnc2)c(OC)c1` [GTS-21], which “activity at the 5HT3R” value (5HT3R) is on record?
A: The value was “little activity”.
